Consider 5 molecules from publication PMC3006138, “Fexinidazole – A New Oral Nitroimidazole Drug Candidate Entering Clinical Development for the Treatment of Sleeping Sickness” (PLoS Neglected Tropical Diseases, 2010).

Several values for one entry are separate records, joined by “and”; a condition that tells them apart may be missing. Equal entries are not always repeated.

One data set relates to colon or liver. The note with it: mouse, in vivo; cited from earlier work.
The test system of a further data set is jejunum or liver. The note with it: rat, in vivo; cited from earlier work.
Another data set relates to rat liver DNA. As to conditions: in vivo; cited from earlier work.
The subject of the next data set is Salmonella typhimurium. On the set-up: method as in ref 58 (Suter et al.). The note with it: standard strains, ref 58 (Suter et al.); cited from earlier work.
A further data set is described as follows: Caco-2 permeability. The note with it: human, Caco-2. The protocol: (§1) Caco-2 [36] or MDR1-MDCK (Madin Darby canine kidney cells transfected with the human multidrug resistance MDR1 gene) cell monolayers were grown to confluence on collagen-coated, microporous, polycarbonate membranes in 12-well microtitre plates. The buffer for the donor chamber was Hanks balanced salt solution with 10 mM HEPES and 15 mM glucose at pH 7.4. The buffer in the receiver chamber contained the same with the addition of 1% bovine serum albumin (BSA). The test article was added at 5 µM in the assay buffer. […] After 2 h, duplicate aliquots were taken from the donor and receiver chambers and assayed via LC/MS. The apparent permeability and recovery were calculated using standard methods.
(§2) The objective of this study was to determine the bi-directional Caco-2 permeability and efflux limited absorption poten tial of thr ee test compoun ds. […]
(§3) 4 . […] Th e test compound dosing concentrations were 5 µM in th e a ssay bu f fer . […] After two hours, a l iquot s wer e t a ken fr om th e r ecei ver an d don or cha m ber s. E a ch det erm ina ti on wa s per for m ed in dupl i cat e. Th e Lucifer Yellow flux was also measur ed for each mon olayer after bein g subjected to th e test compoun ds to en sur e n o damage was in flicted to th e cell mon olayer s durin g th e flux per iod. All samples wer e assayed by LC/MS/MS usin g electrospray ionization. Analytical conditions are outlined in Attachment I. The apparent permeability, Papp, and per cen t r ecover y wer e calculated as follows:
(§4) Papp = (dCr /dt) x Vr/(AxC) (1)
(§5) P er cen t Rec o ver y = 1 0 0 x ( ( V r x C rfi n a l ) + (Vd x Cd fi n a l ))/(Vd x C N) (2) […]
(§6) dCr /dt is th e slope of th e cumulative con cen tration in th e r eceiver compartment ver sus time in µM s -1. […]
In general terms: Passage across Caco-2 layers is used to estimate intestinal permeability.

The test system of data set [1] is MDR1 (human, transfected). The data set is described as follows: MDR1-MDCK permeability. The note with it: dog, MDCK-MDR1. How it is done: as §1
(§7) The objective of this study was to determine the bi-directional MDR1-MDCK permeability and efflux limited absor ption potential of thr ee test compounds. […]
(§8) 4. Th e buff er in th e r ecei ver cha m ber a l so con t a in ed 1% Bovi n e Ser um Al bumin ( BSA) . Th e test compound dosing concentrations were 5 µM in th e a ssay bu f fer . […] After two hours, a l iquot s wer e t a ken fr om th e r ecei ver an d don or cha m ber s. E a ch det erm ina ti on wa s per for m ed in dupl i cat e. Th e Lucifer Yellow flux was also measur ed for each mon olayer after bein g subjected to th e test compoun ds to en sur e n o damage was in flicted to th e cell mon olayer s durin g th e flux per iod. All samples wer e assayed by LC/MS/MS usin g electrospray ionization. Analytical conditions are outlined in Attachment I. The apparent permeability, Papp, and per cen t r ecover y wer e calculated as follows: […]
as §6

The subject of a further data set is human MDR1. The data set is described as follows: MDR1-MDCK permeability. As to conditions: dog, MDCK-MDR1. How it is done:
as §1, §7, §8, §6

For data set [2], the system named is T. b. brucei GVR35. The data set is described as follows: Chronic (stage 2) infection mouse model. It is filed as in vivo. The note with it: 40 mg/kg×1 ip, day 21.
In data set [3] the test system is T. b. gambiense (STIB 930). The data set is described as follows: In vitro trypanocidal assay (Alamar Blue). It is filed as cell-based, Trypanosoma brucei gambiense. The note with it: Trypanosoma brucei, 72 h. The protocol:
Parasites were cultured with or without the test article at a concentration of 3×10^4/mL in Minimal Essential Medium, according to Baltz et al., with the following modifications: 0.2 mM 2-mercaptoethanol, 1 mM Na-pyruvate, 0.5 mM hypoxanthine and 15% heat inactivated horse serum at 37°C in 5% CO2 in 96-well microtitre plates for 72 h. 10 µL of Alamar Blue was added for the final 3 h to determine viability. The assay was assessed by reading the fluorescence in each well at an excitation wavelength of 536 nm and at an emission wavelength of 588 nm. The IC50 values were calculated from the sigmoidal inhibition curves. For cytotoxicity, 4×10^4/mL L-6 rat skeletal myoblast cells were used, and incubations and assessments carried out as above.
For orientation: The colour change of resazurin is a common sign of viable cells or microbes.

Data set [4] relates to T. b. rhodesiense (STIB 900). The data set is described as follows: In vitro trypanocidal assay (Alamar Blue). It is filed as cell-based, Trypanosoma brucei rhodesiense. As to conditions: Trypanosoma brucei, 72 h. How it is done: (§9) 10 µL of Alamar Blue was added for the final 3 h to determine viability. […] The IC50 values were calculated from the sigmoidal inhibition curves. For cytotoxicity, 4×10^4/mL L-6 rat skeletal myoblast cells were used, and incubations and assessments carried out as above.

The subject of a further data set is T. b. gambiense 130R. In words: Acute infection mouse model. It is filed as in vivo. As to conditions: 4 mg/kg×4 days ip. How it is done: (§10) Female NMRI mice were infected via intraperitoneal injection with bloodstream forms of T. b. rhodesiense STIB900 or T. b. gambiense 130R and treated with test drugs daily for 4 consecutive days, starting on day 3 or 7 after infection, respectively, or with bloodstream forms of T. b brucei GVR35 and treated daily from day 21 after infection for 5 days. Parasitemia was evaluated by tail blood examination and surviving, aparasitaemic mice at 60, 90, or 180 days, respectively, were considered cured.

For data set [5], the system named is T. b. brucei GVR35. In words: Chronic (stage 2) infection mouse model. It is filed as in vivo. How it is done:
as §10

In another data set the test system is L-6 rat myoblast cells. In words: Cytotoxicity assay. The note with it: 72 h. In kind it is cell-based. The protocol:
as §9

For data set [6] the following is noted: stage 2 HAT patients; cited from earlier work.
Another data set relates to Caco-2 cell monolayers. The data set is described as follows: in vitro. The note with it: Caco-2. How it is done: as §1, §2, §3, §4, §5, §6
Data set [7] concerns MDR1-MDCK cell monolayers. The data set is described as follows: MDR1-MDCK permeability. As to conditions: plate certification. How it is done:
as §1, §7, §8, §6

Setting [8] is: 15 mg/kg×5 days ip, separate experiment.

`O=c1[nH]c2cc([N+](=O)[O-])cc(CNCP(=O)(O)O)c2[nH]c1=O` [AMP397]: the “mutagenicity in colon or liver” value with colon or liver is recorded as “No evidence of mutagenicity”. Moreover, in the data set on jejunum or liver, the “genetic damage in jejunum or liver” value is “did not detect any genetic damage”. Further, the “DNA binding in rat liver” value with rat liver DNA was “failed to show any DNA binding”. In addition, in the data set with Salmonella typhimurium, the bacterial mutagenicity result is listed as “positive Ames test results”.
With `C[C@H]1O[C@@H](O[C@H]2[C@@H](O)C[C@H](O[C@H]3[C@@H](O)C[C@H](O[C@H]4CC[C@@]5(C)[C@H](CC[C@@H]6[C@@H]5C[C@@H](O)[C@]5(C)[C@@H](C7=CC(=O)OC7)CC[C@]65O)C4)O[C@@H]3C)O[C@@H]2C)C[C@H](O)[C@@H]1O` [Digoxin, reference compound], the values for the Papp A→B in the data set “Caco-2 permeability” and in the data set with human MDR1 were 0.53 ×10⁻⁶ cm/s and 0.13 ×10⁻⁶ cm/s, respectively. For the same molecule, the Papp B→A in “Caco-2 permeability” came to 10.4 ×10⁻⁶ cm/s; in the data set with human MDR1 it was 8.83 ×10⁻⁶ cm/s. The figures for the efflux ratio (in “Caco-2 permeability”; in data set [1]) were 19.6 and 68.8, respectively.
For the molecule `N=C(N)c1ccc(/N=N/Nc2ccc(C(=N)N)cc2)cc1` [Diminazene, Diminazine diaceturate], in the data set on T. b. brucei GVR35 [2], the Cured/infected is recorded as 0/4 and the Mean relapse time is reported as 48.6 days.
`Nc1nc(N)nc(Nc2ccc([As]3SCC(CO)S3)cc2)n1` (stereo not shown) [Melarsoprol, reference compound]: the IC50 in [3] was 0.0015 µg/mL to 0.003 µg/mL and 4 nM to 6 nM; in data set [4] it was 4 to 9 nM; with L-6 rat myoblast cells, 1.3 µg/mL and 3.3 µM. For the same molecule, the figures for the Cured/infected with T. b. gambiense 130R, in the data set with T. b. brucei GVR35 [5] (10 mg/kg×5 days ip) and with T. b. brucei GVR35 [5] (setting [8]) were 4/4, 2/8 and 4/5, respectively. For the same molecule, the Mean relapse time in the data set on T. b. gambiense 130R is given as more than 90 days; with T. b. brucei GVR35 [5] (10 mg/kg×5 days ip), more than 96.6 days; in the data set on T. b. brucei GVR35 [5] (setting [8]), more than 180 days. Also, in the data set on T. b. brucei GVR35 [5] (five daily ip injections of 15 mg/kg), the cure is 100%. Moreover, the treatment-related mortality in data set [6] is recorded as approximately 5%.
Take Lucifer Yellow [reference compound]: the results for the Papp (in the data set on Caco-2 cell monolayers; in data set [7]) were 0.23 10-6 cm/s and 0.12 10-6 cm/s, respectively.

In general, Papp A→B refers to the apparent permeability from the apical to the basolateral side of a cell layer. For orientation: Papp B→A means the apparent permeability from the basolateral to the apical side of a cell layer. Broadly, the efflux ratio is a quotient of directional permeabilities that is used to spot active efflux. By IC50 is commonly meant the concentration that gives 50% inhibition. Read a high IC50 as weaker potency.
